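Each compound was tested at five concentrations against cells in 96-well plates for 48 hours. GI50: concentration for 50% inhibition of growth. At the TGI there is no net growth.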
Tests used:
Assay in all cases: inhibition of tumour cell growth, NCI panel, 48 h
HCT-15 colon = tested on: HCT-15 colon
SF-295 CNS = tested on: SF-295 CNS
M14 melanoma = tested on: M14 melanoma
SN12C renal = tested on: SN12C renal
U251 CNS = tested on: U251 CNS
HS 578T breast = tested on: HS 578T breast
SF-539 CNS = tested on: SF-539 CNS
K-562 leukemia = tested on: K-562 leukemia
RXF 393 renal = tested on: RXF 393 renal
MDA-MB-468 breast = tested on: MDA-MB-468 breast
CAKI-1 renal = tested on: CAKI-1 renal
MDA-MB-435 = tested on: MDA-MB-435
IGROV1 ovarian = tested on: IGROV1 ovarian
NCI-H226 lung = tested on: NCI-H226 lung
HOP-92 NSCLC = tested on: HOP-92 NSCLC
NCI/ADR-RES ovarian = tested on: NCI/ADR-RES ovarian
OVCAR-4 ovarian = tested on: OVCAR-4 ovarian
HL-60(TB) leukemia = tested on: HL-60(TB) leukemia
HT29 colon = tested on: HT29 colon
NCI-H23 lung = tested on: NCI-H23 lung
SK-MEL-2 melanoma = tested on: SK-MEL-2 melanoma
HOP-62 NSCLC = tested on: HOP-62 NSCLC
EKVX NSCLC = tested on: EKVX NSCLC
SK-OV-3 ovarian = tested on: SK-OV-3 ovarian
SNB-75 CNS = tested on: SNB-75 CNS
DU-145 prostate = tested on: DU-145 prostate
LOX IMVI melanoma = tested on: LOX IMVI melanoma

SMILES: COc1ccc2[nH]c(O)c(N=Nc3nc(-c4ccc(Cl)cc4)cs3)c2c1
- GI50 (HCT-15 colon): 1.93 µM
- TGI (HCT-15 colon): 4.14 µM
- GI50 (SF-295 CNS): 5.01 µM
- TGI (SF-295 CNS): 20.6 µM
- GI50 (M14 melanoma): 1.99 µM
- TGI (M14 melanoma): 5.29 µM
- GI50 (SN12C renal): 1.93 µM
- TGI (SN12C renal): 4.42 µM
- GI50 (U251 CNS): 2.06 µM
- TGI (U251 CNS): 4.18 µM
- GI50 (HS 578T breast): 4.54 µM
- TGI (HS 578T breast): 99.7 µM
- GI50 (SF-539 CNS): 1.98 µM
- TGI (SF-539 CNS): 4.22 µM
- GI50 (K-562 leukemia): 3.49 µM
- TGI (K-562 leukemia): > 100 µM
- GI50 (RXF 393 renal): 1.67 µM
- TGI (RXF 393 renal): 3.29 µM
- GI50 (MDA-MB-468 breast): 1.45 µM
- TGI (MDA-MB-468 breast): 3.24 µM
- GI50 (CAKI-1 renal): 6.7 µM
- TGI (CAKI-1 renal): 30.6 µM
- GI50 (MDA-MB-435): 5.86 µM
- TGI (MDA-MB-435): > 100 µM
- GI50 (IGROV1 ovarian): 4.51 µM
- TGI (IGROV1 ovarian): 60.8 µM
- GI50 (NCI-H226 lung): 3 µM
- TGI (NCI-H226 lung): 12.4 µM
- GI50 (HOP-92 NSCLC): 1.92 µM
- TGI (HOP-92 NSCLC): 4.88 µM
- GI50 (NCI/ADR-RES ovarian): 1.92 µM
- TGI (NCI/ADR-RES ovarian): 4.03 µM
- GI50 (OVCAR-4 ovarian): 1.83 µM
- TGI (OVCAR-4 ovarian): 3.54 µM
- GI50 (HL-60(TB) leukemia): > 100 µM
- TGI (HL-60(TB) leukemia): > 100 µM
- GI50 (HT29 colon): 3.52 µM
- TGI (HT29 colon): 50.8 µM
- GI50 (NCI-H23 lung): 2.12 µM
- TGI (NCI-H23 lung): 5.62 µM
- GI50 (SK-MEL-2 melanoma): 3.14 µM
- TGI (SK-MEL-2 melanoma): 34.4 µM
- GI50 (HOP-62 NSCLC): 2.61 µM
- TGI (HOP-62 NSCLC): 9.06 µM
- GI50 (EKVX NSCLC): 2.7 µM
- TGI (EKVX NSCLC): 21.4 µM
- GI50 (SK-OV-3 ovarian): 3.07 µM
- TGI (SK-OV-3 ovarian): 19.7 µM
- GI50 (SNB-75 CNS): 3.36 µM
- TGI (SNB-75 CNS): 17.5 µM
- GI50 (DU-145 prostate): 3.61 µM
- TGI (DU-145 prostate): 30.9 µM
- GI50 (LOX IMVI melanoma): 1.9 µM
- TGI (LOX IMVI melanoma): 4.08 µM
